Reference: US6372212B1, “Chitinase materials and methods” (ICOS Corporation, priority 1996, dated 2002)
≈ marks a conversion by molar mass, not a printed value. Where two headings read alike, the source gives them in different places.

Tests used:
[1] = test system: Aspergillus fumigatus (ATCC no. 16424); assay: Broth assay; format: cell-based
Protocol: (§1) In additional experiments, the anti-fungal activity of recombinant human chitinase (produced in COS cells as described in Example 5A) was evaluated in an agar diffusion assay, in a broth assay according to National Committee on Clinical Laboratory Standards, and in a cell wall inhibition assay according to Selitrennikoff, Antimicrob. Agents Chemother., 23:757-765 (1983).
(§2) In the broth assay, 50 μg/ml of the sample (A: recombinant human chitinase, B: buffer control, C: control protein, D: a bacterial lysate with chitinase activity, or a known anti-fungal agent) was added with a certain concentration of the test fungal organism to RPMI 1640 media buffered with MOPS, pH 7.0. The samples were incubated at 35° C., with shaking at 120 rpm, for 48 hours, and then growth was evaluated by measuring the turbidity of the suspension. The approximate concentrations of the test fungi were as follows: 2.5×10^4 cells/ml of Candida albicans (ATCC no. 90028); 5×10^4 cells/ml of Candida albicans-polyene resistant (ATCC no. 38247); 1 x 10^4 cells/ml of Aspergillus fumigatus (ATCC no. 16424); 1×10^4 cells/ml of Neurospora crassa (ATCC no. 18889); and 1×10^4 cells/ml of Saccharomyces cerevisiae (ATCC no. 26108).

[2] = test system: Candida albicans (ATCC no. 90028); assay: Broth assay; format: cell-based; settings: for IC50: lowest concentration inhibiting growth by at least 50%
Protocol: as §1, §2

[3] = test system: Candida albicans-polyene resistant (ATCC no. 38247); assay: Broth assay; format: cell-based; settings: for IC50: Candida, ATCC38247, lowest concentration inhibiting growth by at least 50%
Protocol: as §1, §2

[4] = test system: Neurospora crassa (ATCC no. 18889); assay: Broth assay; format: cell-based; set-up: key to Neurospora crassa Growth: 0: No fungal growth; 1: growth is 25% of control; 2: growth is 50% of control; 3: growth is 75% of control; 4: growth equivalent to control; 5: growth is greater than control; settings: for IC50: Neurospora crassa, ATCC18889, lowest concentration inhibiting growth by at least 50%
Protocol: as §1, §2

[5] = test system: Saccharomyces cerevisiae (ATCC no. 26108); assay: Broth assay; format: cell-based; set-up: key to IC50: 0: No fungal growth; 1: growth is 25% of control; 2: growth is 50% of control; 3: growth is 75% of control; 4: growth equivalent to control; 5: growth is greater than control; settings: for IC50: lowest concentration inhibiting growth by at least 50%
Protocol: as §1, §2

[6] = test system: Candida albicans (ATCC no. 90028); assay: Agar diffusion assay; format: cell-based; set-up: key: +: Normal growth, no inhibition of growth observed; −: Inhibited fungal growth, zone of inhibition is observed
Protocol: as §1
In the agar diffusion assay, approximately 1×10^6 cells/ml of Candida albicans (ATCC no. 90028) inoculated into 1.5% agar (RPMI 1640 media buffered with […] (MOPS), pH 7.0. A disk containing 50 μg of the sample (A: recombinant human chitinase, B: buffer control, C: control protein, D: a bacterial lysate with chitinase activity, or a known anti-fungal agent) was placed on the agar, and the zone of growth inhibition was measured. Results are shown in Table 1 below.

Aspergillus fumigatus = assay: Agar diffusion assay; format: cell-based; set-up: key: +: Normal growth, no inhibition of growth observed; −: Inhibited fungal growth, zone of inhibition is observed
[7] = test system: os-1 cell, mutant strain of Neurospora crassa (protoplasts); assay: os-1 whole cell assay (fungal cell wall biosynthesis inhibition); format: cell-based; set-up: key to Cell Wall Regenertion: +: Normal cell-wall regeneration; −: Inhibited cell-wall regeneration; key to Cell Growth: +: Normal growth, no inhibition of growth observed; −: Inhibited fungal growth, zone of inhibition is observed; settings: 25° C., 72 hours
[8] = Chitotriosidase (chitinase) catalytic activity, fluorogenic substrate; format: biochemical
Protocol: Chitotriosidase (chitinase) activity was measured using the fluorogenic substrate 4-methylumbelliferyl-β-D-N,N′,N″-triacetylchitotriose (4 MU-chitotrioside, Sigma Chemical, St. Louis, Mo.) in McIlvain buffer (Hollak et al., supra). Ten μl samples of the recombinant product were combined with 10 itl bovine serum albumin (10 mg/ml), 15 μl fluorogenic substrate (2.71 mM), and 65 μl buffer (0.1M citric acid, 0.2M sodium phosphate, pH 5.2) in a total volume of 100 μl. Reactions were incubated at 37° C. for 15 minutes, then the reaction was stopped with the addition of 2 ml of 0.3M glycine/NaOH buffer (pH 10.6). The fluorescent cleavage product, 4-methylumbelliferone, was monitored with a fluorimeter (SLM-AMINCO Instruments, Inc., Rochester, N.Y.) at 450 nm. […] The known quantity of 4-MU was then correlated to the fluorescence signal from the fluorimeter and linear regression was used to determine a standard curve. The signal produced with diluted purified recombinant chitinase in the assay was then used to interpolate the nm quantity of substrate cleaved by the enzyme during the reaction time. This number was then divided by the concentration of protein to obtain the nm/min per mg protein (determined by A280 and calculated molar extinction coefficient).

Aspergillus fumigatis = assay: Preliminary in vitro fungal growth inhibition (turbidity of cultures); format: cell-based; settings: 0, 2.8, 11.25, or 45 μg/ml; 24 hours; 10,000-50,000 CFU per ml
Protocol: (§3) In a preliminary experiment, recombinant human chitinase was tested for inhibition of fungal growth in vitro. The two fungi Candida albicans and Aspergillus fumigatis are serious pathogens for immunocompromised patients. Both Candida and Aspergillus were grown in RPMI growth media at 37° C. to approximately 10,000-50,000 colony forming units (CFU) per ml. Recombinant human chitinase (produced in COS cells as described in Example 5A) was added to cultures at 0, 2.8, 11.25, or 45 μg/ml. After 24 hours, fungal growth was assessed by turbidity of cultures. […] The concentration of fungi tested, however, is much higher than the fungal burden seen during fungal infection in vivo. Different results may be obtained under different conditions, e.g., with a lower fungal burden, or when human chitinase is tested in combination with other anti-fungal agents.

Candida albicans = assay: as above; format: cell-based; settings: 0, 2.8, 11.25, or 45 μg/ml; 24 hours; 10,000-50,000 CFU per ml
Protocol: as §3

[9] = test system: os-1 cell, mutant strain of Neurospora crassa (protoplasts); assay: os-1 whole cell assay (fungal cell wall biosynthesis inhibition); format: cell-based; set-up: key to Cell Wall Regenertion: +: Normal cell-wall regeneration; −: Inhibited cell-wall regeneration; key to Cell Growth: +: Normal growth, no inhibition of growth observed; −: Inhibited fungal growth, zone of inhibition is observed
Protocol: as §1
The os-1 whole cell assay, which identifies inhibitors of fungal cell wall biosynthesis, was conducted essentially according to Selitrennikoff, supra, using an inoculum of 1.5×10^5 protoplasts/ml embedded in agar (Vogel's Medium N, 7.5% sorbitol, 1.5 % sucrose, 10 μg/ml nicotiniamide and 1 % agar) incubated at 25° C. for 72 hours. The cultures were monitored for changes in growth and morphology after disks containing 50 μg of the sample (A: recombinant human chitinase, B: buffer control, C: control protein, D: a bacterial lysate with chitinase activity, or a known anti-fungal agent) were placed on the agar medium. The os-1 cell is a mutant strain of Neurospora crassa that grows as protoplasts without cell walls when incubated under certain conditions at 37° C., but regenerates a cell wall under the appropriate conditions when the temperature is shifted to about 22° C.

[10] = set-up: species or system Female Balb/c mice; settings: mouse, in vivo, iv
Protocol: The pharmacokinetics of recombinant human chitinase in mice were determined as follows. Female Balb/c mice, 6-8 weeks old, were injected intravenously in the tail vein with 0.5 mg/kg, 5.0 mg/kg and 50 mg/kg recombinant human chitinase. For each dose, mice were terminally bled at 0.01, 0.25, 1, 8 and 24 hours after injection (2 animals were used per time point per dosage). Serum samples were then assayed for chitinase activity and concentration.

test fungal organism = assay: Broth assay, overall conclusion; format: cell-based
Protocol: as §2

[11] = lowest concentration inhibiting growth by at least 90%
[12] = 50 μg/ml, 35° C., 48 hours, turbidity score

Nc1nc(=O)[nH]cc1F [5-fluorocytosine]
IC50 ([1]; Aspergillus fumigatus, ATCC16424, lowest concentration inhibiting growth by at least 50%): 16 µg/mL (≈ 124 µM)
IC50 [2]: 2 μg/ml (growth is 50% of control)
IC50 [3]: 0.06 µg/mL (≈ 0.465 µM)
IC50 [4]: > 64 µg/mL
IC50 ([5]; Saccharomyces cerevisiae, ATCC26108, read-out: IC50): 0.125 µg/mL

C[C@@H]1[C@H](O)[C@@H](C)/C=C/C=C/C=C/C=C/C=C/C=C/C=C/[C@H](O[C@@H]2O[C@H](C)[C@@H](O)[C@H](N)[C@@H]2O)C[C@@H]2O[C@](O)(C[C@@H](O)C[C@@H](O)[C@H](O)CC[C@@H](O)C[C@@H](O)CC(=O)O[C@H]1C)C[C@H](O)[C@H]2C(=O)O [amphotericin B]
Candida albicans Growth ([6]; 400 ng/disk): −
Aspergillus fumigatus Growth (Aspergillus fumigatus; 400 ng/disk): −
IC90 [1, 11]: 2 μg/ml (growth is 50% of control)
IC90 [2, 11]: 0.5 µg/mL (≈ 0.541 µM)
IC90 [3, 11]: >16 µg/mL
IC90 [4, 11]: 0.5 µg/mL
Cell Growth ([7]; 400 ng/disk): −
Cell Wall Regenertion ([7]; 400 ng/disk): +
Morphology ([7]; 400 ng/disk): cell debris
Radial measurement of inhibited growth from center of disk ([7]; 400 ng/disk): 10 mm^e

OC(Cn1cncn1)(Cn1cncn1)c1ccc(F)cc1F [fluconazole]
IC50 ([2]; Candida albicans, ATCC90028, read-out: IC50): 0.5 µg/mL (≈ 1.63 µM)
IC50 [3]: 16 µg/mL (≈ 52.2 µM)
IC50 [4]: 8 µg/mL
IC50 [5]: 4 µg/mL

C[C@@H]([C@H](N)C(=O)N[C@H](C(=O)O)[C@H]1O[C@@H](n2ccc(=O)[nH]c2=O)[C@H](O)[C@@H]1O)[C@H](O)c1ccc(O)cn1 [nikkomycin Z]
Cell Growth ([7]; 1 μg/disk): +
Cell Wall Regenertion ([7]; 1 μg/disk): −
Morphology ([7]; 1 μg/disk): protoplasts
Radial measurements of inhibited cell-wall regeneration from center of disk ([7]; 1 μg/disk): 30 mm^d

A: rH-Chitinase: Recombinant human chitinase (full length, pRc/CMV-MO-13B, SEQ ID NO: 4) produced in COS cells according to Example 5A
chitotriosidase activity ([8]; purified protein produced in COS cells, 37° C., 15 minutes, pH 5.2): 90 nm/min per mg protein
fungal growth assessed by turbidity of cultures (Aspergillus fumigatis): comparable rates, independent of chitinase concentration
fungal growth assessed by turbidity of cultures (Candida albicans): comparable rates, independent of chitinase concentration
Candida albicans Growth ([6]; 50 μg/disk): +
Aspergillus fumigatus Growth (Aspergillus fumigatus; 50 μg/disk): +
Aspergillus fumigatus Growth [1, 12]: 3 (growth is 75% of control)
Candida albicans Growth [2, 12]: 2 (growth is 50% of control)
C. albicans-polyene resistant Growth [3, 12]: 2 (growth is 50% of control)
Neurospora crassa Growth [4, 12]: 4
Saccharomyes cerevisiae Growth [5, 12]: 2 (growth is 50% of control)
conclusion in the os-1 whole cell assay (in words) [9]: cell wall specific inhibitor
Cell Growth ([9]; 50 μg/disk, 25° C., 72 hours): +
Cell Wall Regenertion ([9]; 50 μg/disk, 25° C., 72 hours): −
Morphology ([9]; 50 μg/disk, 25° C., 72 hours): protoplasts
Radial measurements of inhibited cell-wall regeneration from center of disk ([9]; 50 μg/disk, 25° C., 72 hours): 10 mm^d
MRT (total body mean residence time) ([10]; 0.5 mg/kg): 45 min
MRT (total body mean residence time) ([10]; 5 mg/kg): 45.6 min
MRT (total body mean residence time) ([10]; 50 mg/kg): 159 min
conclusion in the broth assay (in words) (test fungal organism): mildly anti-fungal

recombinant product: C-terminal truncated human chitinase analog (serine at position 370) expressed in E. coli from the Ara-chitinase plasmid at 25° C.
chitinase catalytic activity ([8]; E. coli transformants grown at 25° C., in words): exhibited chitinase catalytic activity
